In ChEMBL document CHEMBL2074319, “The antiviral nucleotide analogs cidofovir and adefovir are novel substrates for human and rat renal organic anion transporter 1” (Mol Pharmacol, 1999):

Assays:
[1] = biological target: T1, Solute carrier family 22 member 6 (Homo sapiens, UniProt Q4U2R8); assay: TP_TRANSPORTER: inhibition of PAH uptake (PAH: 50 uM, BCG: 1000 uM) in Xenopus laevis oocytes; assay type: functional, cell-based; settings: oocyte
T1 sequence (Q4U2R8 whole entry): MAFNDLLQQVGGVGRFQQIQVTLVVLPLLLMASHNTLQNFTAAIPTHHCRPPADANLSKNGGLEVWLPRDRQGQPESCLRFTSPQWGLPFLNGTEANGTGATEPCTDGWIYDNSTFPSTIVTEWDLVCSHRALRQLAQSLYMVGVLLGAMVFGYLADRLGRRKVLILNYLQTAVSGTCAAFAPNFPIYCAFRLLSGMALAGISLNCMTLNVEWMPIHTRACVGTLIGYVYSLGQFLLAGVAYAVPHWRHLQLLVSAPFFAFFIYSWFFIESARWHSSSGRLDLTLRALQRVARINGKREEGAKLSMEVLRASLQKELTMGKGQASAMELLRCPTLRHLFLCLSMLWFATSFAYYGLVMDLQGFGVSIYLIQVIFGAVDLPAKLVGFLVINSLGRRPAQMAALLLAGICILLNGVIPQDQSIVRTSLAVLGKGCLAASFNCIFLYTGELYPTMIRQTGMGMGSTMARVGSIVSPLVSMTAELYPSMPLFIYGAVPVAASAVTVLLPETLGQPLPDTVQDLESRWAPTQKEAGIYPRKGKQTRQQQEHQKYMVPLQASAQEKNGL

[2] = biological target: T1, Solute carrier family 22 member 6; assay: TP_TRANSPORTER: inhibition of PAH uptake (PAH: 50 uM, alpha-KG: 1000 uM) in Xenopus laevis oocytes; assay type: functional, cell-based; settings: oocyte
[3] = biological target: T1, Solute carrier family 22 member 6; assay: (§1) TP_TRANSPORTER: uptake in Xenopus laevis oocytes; assay type: functional, cell-based; settings: oocyte
[4] = biological target: T2, Solute carrier family 22 member 6 (Rattus norvegicus, UniProt O35956); assay: as §1; assay type: functional, cell-based; settings: oocyte
T2 sequence (O35956 whole entry): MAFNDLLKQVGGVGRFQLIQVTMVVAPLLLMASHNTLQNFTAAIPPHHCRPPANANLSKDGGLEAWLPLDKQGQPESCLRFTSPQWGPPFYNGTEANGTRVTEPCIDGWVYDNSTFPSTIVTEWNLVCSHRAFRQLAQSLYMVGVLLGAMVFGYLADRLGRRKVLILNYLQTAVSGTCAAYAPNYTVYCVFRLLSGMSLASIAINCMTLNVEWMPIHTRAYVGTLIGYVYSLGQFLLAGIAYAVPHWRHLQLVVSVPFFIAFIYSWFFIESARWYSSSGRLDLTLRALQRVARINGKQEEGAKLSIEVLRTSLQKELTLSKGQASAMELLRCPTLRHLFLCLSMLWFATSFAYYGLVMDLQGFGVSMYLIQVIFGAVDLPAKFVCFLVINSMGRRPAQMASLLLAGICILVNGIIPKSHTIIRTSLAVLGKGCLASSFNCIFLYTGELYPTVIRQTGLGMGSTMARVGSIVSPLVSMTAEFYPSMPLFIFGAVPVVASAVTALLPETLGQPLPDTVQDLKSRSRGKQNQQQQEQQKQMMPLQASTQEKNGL

[5] = biological target: T1, Solute carrier family 22 member 6; assay: TP_TRANSPORTER: inhibition of PAH uptake (PAH: 50 uM, 2,4-D: 1000 uM) in Xenopus laevis oocytes; assay type: functional, cell-based; settings: oocyte
[6] = substrate: Nc1ccn(C[C@@H](CO)OCP(=O)(O)O)c(=O)n1; assay: as §1; assay type: functional, cell-based, Oocyte
[7] = substrate: Nc1ncnc2c1ncn2CCOCP(=O)(O)O; assay: as §1; assay type: functional, cell-based, Oocyte

Q: For `Cc1c(C2(c3cc(Br)c(O)c(Br)c3C)OS(=O)(=O)c3ccccc32)cc(Br)c(O)c1Br` [BROMCRESOL GREEN], which Activity [1] is on record?
A: inhibitor [(at a rough estimate) <5 % of control]

Q: `O=C(O)CCC(=O)C(=O)O` [ALPHA-KETOGLUTARIC ACID] was tested. Which Activity [2] did it give?
A: inhibitor [(at a rough estimate) 5 % of control]

Q: Which Activity [3] does the source give for `Nc1nc2c(ncn2CCOCP(=O)(O)O)c(=O)[nH]1` [GS-438] here?
A: substrate [+]

Q: And the Activity [4]?
A: substrate [+]

Q: `O=C(O)COc1ccc(Cl)cc1Cl` [2,4-DICHLOROPHENOXYACETIC ACID] was tested. Which Activity [5] did it give?
A: inhibitor [(at a rough estimate) <5 % of control]

Q: Which results are given for `Nc1nc(N)c2ccn(CCOCP(=O)(O)O)c2n1`?
A: Activity [3]: substrate [+]; Activity [4]: substrate [+]

B1: Solute carrier family 22 member 6 (Rattus norvegicus) (protein)
chain: T2 sequence (O35956 whole entry)
Q: What does the source list for B1?
A: Km [6]: 238 µM; Km [7]: 270 µM

B2: Solute carrier family 22 member 6 (Homo sapiens) (protein)
chain: T1 sequence (Q4U2R8 whole entry)
Q: How did the Km [6] turn out when B2 was run?
A: 46 µM

Q: And the Km [7]?
A: 30 µM
